Results taken from article PMC11596392, “Enhanced Antibacterial, Anti-Inflammatory, and Antibiofilm Activities of Tryptophan-Substituted Peptides Derived from Cecropin A-Melittin Hybrid Peptide BP100” (Molecules, 2024).
In brackets after ≈: the same amount, converted by molar mass. Read-outs that look alike come from different tables or passages of the source. Where no end group is shown, it is not given here.

Tests used:
S. aureus (KCTC 1621) [1] = assay type: cell-based, Staphylococcus aureus; settings: 10% Human Serum
[2] = system: S. epidermidis (KCTC 1917); assay type: cell-based, Staphylococcus epidermidis; settings: broth microdilution in MHB, 37 °C, 24 h, 100% inhibition of growth
Protocol: (§1) The antibacterial efficacy of the synthesized peptides was evaluated by determining the minimal inhibitory concentrations (MICs) against six standard bacterial strains and five drug-resistant bacterial strains using the Clinical and Laboratory Standards Institute (CLSI) microdilution method. Melittin served as the positive control.
(§2) The minimal inhibitory concentrations (MICs) of the peptides against bacterial strains were determined using a modified broth-microdilution method in accordance with the National Committee for Clinical Laboratory Standards (NCCLS) guidelines. Overnight cultures were diluted in cation-adjusted Mueller–Hinton Broth (MHB) to achieve an inoculum density of 2 × 10^6 CFU/mL. A two-fold serial dilution of the peptide solution (100 μL) was introduced into microtiter plates, followed by the addition of 100 μL of bacterial suspension. The plates were then incubated at 37 °C for 24 h to determine the MICs. Wells containing only culture media served as negative controls, while those with added bacteria functioned as positive controls. The MIC, expressed in μM, was defined as the lowest peptide concentration that prevented visible bacterial growth. This protocol was also employed to determine MICs in the presence of physiological salts (150 mM of NaCl, 4.5 mM of KCl, 6 μM of NH4Cl, 1 mM of MgCl2, 2.5 mM of CaCl2, and 4 μM of FeCl3) and 20% human serum to assess the peptides’ efficacy under conditions more closely resembling physiological environments. All experiments were conducted in triplicate and repeated three times independently to ensure reproducibility and statistical significance of the results.

VREF (ATCC 51559) = assay type: cell-based, vancomycin-resistant Enterococcus faecium; settings: broth microdilution in MHB, 37 °C, 24 h, 100% inhibition of growth
Protocol: as §1, §2

B. subtilis (KCTC 3068) = assay type: cell-based, Bacillus subtilis; settings: broth microdilution in MHB, 37 °C, 24 h, 100% inhibition of growth
Protocol: as §1, §2

E. coli (KCTC 1682) [3] = assay type: cell-based, Escherichia coli
Protocol: (§3) To comprehensively evaluate the therapeutic potential of BP100 and the five selected analogs, we assessed their capacity to maintain antibacterial activity in the presence of physiological salts and serum (Table 4). Antibacterial assays were conducted in an environment supplemented with either […] fresh human serum or physiological salts. […] This enhanced stability in physiologically relevant conditions may have important implications for the potential therapeutic applications of these peptide analogs.
as §2

S. aureus (KCTC 1621) [4] = assay type: cell-based, Staphylococcus aureus; settings: broth microdilution in MHB, 37 °C, 24 h, 100% inhibition of growth
Protocol: as §1, §2

E. coli (KCTC 1682) [5] = assay type: cell-based, Escherichia coli; settings: 10% Human Serum
[6] = system: sheep red blood cells (sRBCs); experiment: Hemolytic activity assay; assay type: cell-based; settings: 4% (v/v) sheep red blood cells in PBS, 1 h, 37 °C; 1 to 256 μM tested
Protocol: To assess toxicity in mammalian cells, we evaluated the hemolytic activity of the peptides on sheep red blood cells (sRBCs). […] The therapeutic index (TI), a measure commonly employed to evaluate the cell selectivity of antibacterial agents, was calculated as the ratio of the concentration causing 10% hemolysis of sRBCs (HC10) to the GM [19, 20, 21, 22].
The hemolytic activity of the peptides was tested through hemolysis assay of sheep red blood cells (sRBCs). The sRBCs were diluted in PBS to achieve a 4% (v/v) concentration. Subsequently, 100 μL of peptide solutions, ranging from 1 to 256 μM, was dispensed into a 96-well plate containing an equal volume of the erythrocyte suspension. After incubating for 1 h at 37 °C and centrifuging at 1000× g for 10 min, 100 μL of the supernatant was transferred to a new 96-well plate. Hemoglobin release was quantified using a microplate reader at a wavelength of […]. The percentage of hemolysis was calculated using percentage hemolysis = 100 × [[…]], where A represents the absorbance of the peptide-treated sample at 540 nm, A0 corresponds to the absorbance value representing 0% hemolysis in PBS, and At corresponds to the absorbance value representing 100% hemolysis in 0.1% Triton X-100.

S. aureus (KCTC 1621) [7] = assay type: cell-based, Staphylococcus aureus
Protocol: as §3, §2

Molecule | MIC (S. aureus (KCTC 1621) [1]) | Minimal Inhibitory Concentration (MIC) [2] | Minimal Inhibitory Concentration (MIC) (VREF (ATCC 51559)) | Minimal Inhibitory Concentration (MIC) (B. subtilis (KCTC 3068)) | MIC (E. coli (KCTC 1682) [3]; 4 μM of FeCl3) | MIC (E. coli (KCTC 1682) [3]; 6 μM of NH4Cl) | MIC (E. coli (KCTC 1682) [3]; 1 mM of MgCl2) | MIC (E. coli (KCTC 1682) [3]; 2.5 mM of CaCl2) | MIC (E. coli (KCTC 1682) [3]; 4.5 mM of KCl) | MIC (E. coli (KCTC 1682) [3]; 150 mM of NaCl) | MIC (E. coli (KCTC 1682) [3]; Control, absence of salts) | Minimal Inhibitory Concentration (MIC) (S. aureus (KCTC 1621) [4]) | MIC (E. coli (KCTC 1682) [5]) | HC10 (peptide concentration that caused 10% hemolysis) [6] | MIC (S. aureus (KCTC 1621) [7]; 4 μM of FeCl3) | MIC (S. aureus (KCTC 1621) [7]; 6 μM of NH4Cl) | MIC (S. aureus (KCTC 1621) [7]; 1 mM of MgCl2) | MIC (S. aureus (KCTC 1621) [7]; 2.5 mM of CaCl2) | MIC (S. aureus (KCTC 1621) [7]; 4.5 mM of KCl) | MIC (S. aureus (KCTC 1621) [7]; 150 mM of NaCl) | further results
CC[C@H](C)[C@H](NC(=O)[C@H](CCCCN)NC(=O)[C@H](CCCCN)NC(=O)[C@H](Cc1ccccc1)NC(=O)[C@H](CC(C)C)NC(=O)[C@H](CCCCN)NC(=O)[C@@H](N)CCCCN)C(=O)N[C@@H](CC(C)C)C(=O)N[C@@H](CCCCN)C(=O)N[C@@H](Cc1ccc(O)cc1)C(=O)N[C@@H](CC(C)C)C(N)=O [BP100] | 32 µM (≈ 45.5 µg/mL) | 4 µM | 64 µM | 8 µM | 16 µM (≈ 22.7 µg/mL) | 16 µM (≈ 22.7 µg/mL) | 16 µM (≈ 22.7 µg/mL) | 16 µM (≈ 22.7 µg/mL) | 16 µM (≈ 22.7 µg/mL) | 16 µM (≈ 22.7 µg/mL) | 4 µM | 4 µM | 16 µM (≈ 22.7 µg/mL) | >256 µM | 16 µM (≈ 22.7 µg/mL) | 16 µM (≈ 22.7 µg/mL) | 16 µM (≈ 22.7 µg/mL) | 16 µM (≈ 22.7 µg/mL) | 16 µM (≈ 22.7 µg/mL) | 16 µM (≈ 22.7 µg/mL) | MIC (S. aureus (KCTC 1621) [7]; Control, absence of salts): 4 µM
KKWWKKILKYL-NH2 [BP5] | 4 µM | 1 µM | 8 µM | 2 µM | 8 µM | 4 µM | 4 µM | 8 µM | 4 µM | 8 µM | 2 µM | 2 µM | 4 µM | >256 µM | 4 µM | 4 µM | 4 µM | 4 µM | 4 µM | 4 µM | MIC (S. aureus (KCTC 1621) [7]; Control, absence of salts): 2 µM
KKLFKKIWKWL-NH2 [BP11] | 8 µM | 4 µM | 16 µM | 8 µM | 4 µM | 4 µM | 8 µM | 16 µM | 8 µM | 16 µM | 8 µM | 4 µM | 8 µM | >256 µM | 4 µM | 4 µM | 4 µM | 16 µM | 4 µM | 8 µM | MIC (S. aureus (KCTC 1621) [7]; Control, absence of salts): 4 µM
KKLWKKILKWL-NH2 [BP8] | 4 µM | 2 µM | 16 µM | 8 µM | 4 µM | 8 µM | 8 µM | 16 µM | 4 µM | 8 µM | 2 µM | 4 µM | 4 µM | >256 µM | 4 µM | 4 µM | 4 µM | 4 µM | 4 µM | 4 µM | MIC (S. aureus (KCTC 1621) [7]; Control, absence of salts): 4 µM
KKWFKKWLKWL-NH2 [BP13] | 8 µM | 8 µM | 16 µM | 8 µM | 8 µM | 8 µM | 8 µM | 16 µM | 8 µM | 16 µM | 8 µM | 4 µM | 16 µM | >256 µM | 8 µM | 8 µM | 8 µM | 8 µM | 8 µM | 8 µM | MIC (S. aureus (KCTC 1621) [7]; Control, absence of salts): 4 µM
KKWFKKILKWL-NH2 [BP6] | 4 µM | 2 µM | 8 µM | 4 µM | 16 µM | 16 µM | 8 µM | 16 µM | 4 µM | 8 µM | 4 µM | 2 µM | 4 µM | >256 µM | 8 µM | 4 µM | 4 µM | 4 µM | 4 µM | 4 µM | MIC (S. aureus (KCTC 1621) [7]; Control, absence of salts): 2 µM
